# Experimental data from patent publication US20180306775A1, “Portable Sampling Device and Method for Sampling Drug Substances From Exhaled Breath” (Sensa Bues AB, priority 2011, published 2018).
# Columns and labels:
# Assay type in all cases: in vivo, human
# [1] = Sampling of methadone from exhaled breath using electrostatic filter membrane (250 g/m2 non-woven layer, two carriers); details: for Methadone Range: range among subjects
# Description: (§1) Sampling of drugs of abuse from exhaled human breath using filter membrane.
# The tests were performed at 4 different occasions.
# [2] = Pre-study: sampling of methadone in breath using variable densities of the electrostatic filter membrane; details: exhaled breath, n=5; for Methadone Range: range among subjects
# Source text: as §1
# Type is the density of the non-woven layer at each test, the other headlines are the same as for table 1.
# [3] = Sampling of methadone in exhaled breath with constructed sampler (tubular section with baffles), two filter thicknesses; details: for Constructed sampler Methadone Range: n=5
# Source text: as §1
# The subject exhales through the tubular section comprising baffles to trapping large particles and saliva.
# [4] = filter diameter 32 mm, sampling time 1 min, n=6
# [5] = filter diameter 32 mm, sampling time 3 min, n=5 (one of 4 occasions)
# [6] = filter diameter 32 mm, sampling time 3 min, n=6 (one of 4 occasions)
# [7] = filter diameter 47 mm, sampling time 3 min, n=6
structure (smiles),measurement,setting,value
"CCC(=O)C(CC(C)N(C)C)(c1ccccc1)c1ccccc1 (stereo not drawn) [Methadone, methadone]",Methadone pg/min mean ± SD,[1]; [4],204 ± 116 pg/min
same,Methadone Range,[1]; [4],21 to 326 pg/min
same,Methadone pg/min mean ± SD,[1]; [5],112 ± 89 pg/min
same,Methadone pg/min mean ± SD,[1]; [6],92 ± 62 pg/min
same,Methadone Range,[1]; [5],47 to 266 pg/min
same,Methadone Range,[1]; [6],28 to 199 pg/min
same,Methadone pg/min mean ± SD,[1]; [7],86 ± 52 pg/min
same,Methadone Range,[1]; [7],18 to 168 pg/min
same,Methadone Range,[2]; filter type 150 g/m2,24 to 216 pg/min
same,Methadone Range,[2]; filter type 250 g/m2,19 to 231 pg/min
same,Methadone Range,[2]; filter type 300 g/m2,20 to 287 pg/min
same,Methadone pg/min mean ± SD,[2]; filter type (density of non-woven layer) 150 g/m2,74.4 ± 80.4 pg/min
same,Methadone pg/min mean ± SD,[2]; filter type (density of non-woven layer) 250 g/m2,71.0 ± 90.1 pg/min
same,Methadone pg/min mean ± SD,[2]; filter type (density of non-woven layer) 300 g/m2,91.8 ± 110 pg/min
same,Constructed sampler Methadone pg/min mean ± SD,"[3]; filter thickness 1, n=5",40 ± 27 pg/min
same,Constructed sampler Methadone Range,"[3]; filter thickness 1, range among subjects",12 to 85 pg/min
same,Constructed sampler Methadone pg/min mean ± SD,"[3]; filter thickness 2, n=5",42 ± 28 pg/min
same,Constructed sampler Methadone Range,"[3]; filter thickness 2, range among subjects",17 to 90 pg/min
